Experimental data reported in patent publication US20250101011A1, “PEPTIDYL NITRILE COMPOUND AND USE THEREOF” (SHANGHAI YIDIAN PHARMACEUTICAL TECHNOLOGY DEVELOPMENT CO., …, priority 2022, published 2025).

Target: DPP1 (Homo sapiens (Human), UniProt P53634)
Test: DPP1 activity inhibition test on U937 cells
Format: cell-based
Conditions: substrate h-Gly-phe-AFC; for IC50: intracellular enzyme activity; for inhibition at 0.005 µM: U-937, 5 nM compound; for inhibition at 0.05 µM: U-937, 50 nM compound
Experimental: After incubation at 37° C. for 1 h, add h-Gly-phe-AFC (10 μL) to each well and start reaction.

Chain of DPP1 (P53634 25-463): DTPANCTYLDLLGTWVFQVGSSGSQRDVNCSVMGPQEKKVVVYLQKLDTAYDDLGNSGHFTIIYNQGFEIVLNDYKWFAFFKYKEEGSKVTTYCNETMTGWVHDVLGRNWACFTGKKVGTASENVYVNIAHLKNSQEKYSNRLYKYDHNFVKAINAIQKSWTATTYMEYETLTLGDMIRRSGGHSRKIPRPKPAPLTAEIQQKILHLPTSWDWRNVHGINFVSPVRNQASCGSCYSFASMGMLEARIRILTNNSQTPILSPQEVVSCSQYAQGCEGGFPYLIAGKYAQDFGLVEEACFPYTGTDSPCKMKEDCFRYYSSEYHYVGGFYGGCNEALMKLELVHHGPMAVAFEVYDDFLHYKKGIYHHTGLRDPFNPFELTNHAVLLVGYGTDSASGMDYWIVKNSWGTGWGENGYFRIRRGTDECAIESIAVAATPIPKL

| IC50 | inhibition at 0.005 µM | inhibition at 0.05 µM | Structure (SMILES) | Average Inhibition % @5 nM (5 nM compound) | Average Inhibition % @50 nM (50 nM compound) |
| --- | --- | --- | --- | --- | --- |
| 29.4 nM |  |  | CN1CC2(Cc3cc(-c4ccc(C[C@@H](C#N)NC(=O)[C@@H]5CNCCCO5)c(F)c4)ccc3C2=O)C1 [Compound D115] |  |  |
| 12.2 nM | 30 to 75% | 75 to 100% | CN1CC2(C1)OCc1ccc(-c3ccc(C[C@@H](C#N)NC(=O)[C@@H]4CNCCCO4)c(F)c3)cc12 [Compound D103] |  |  |
| 5.3 nM | 30 to 75% | 75 to 100% | C[C@H]1CNC[C@@H](C(=O)N[C@H](C#N)Cc2ccc(-c3ccc4oc(=O)n(C)c4c3)cc2F)OC1 [Compound D109] |  |  |
|  | < 30% | < 30% | N#C[C@H](Cc1ccc(-c2ccc3c(c2)C2(CS(=O)(=O)C2)OC3=O)cc1F)NC(=O)[C@@H]1CNCCCO1 [Compound D72] |  |  |
| 32.9 nM | < 30% | 75 to 100% | N#C[C@H](Cc1ccc(-c2ccc3c(n2)CCC3=O)cc1F)NC(=O)[C@@H]1CNCCCO1 [Compound D111] |  |  |
| 867 nM |  |  | Cn1ccc(=O)c2ccc(-c3ccc(C[C@@H](C#N)NC(=O)[C@@H]4CNCCCO4)c(F)c3)cc21 [Compound D114] |  |  |
|  | < 30% | < 30% | N#C[C@H](Cc1ccc(-c2ccc3c(c2)C2(CCN(C4COC4)C2)OC3=O)cc1F)NC(=O)[C@@H]1CNCCCO1 (stereo partly drawn) [Compound D89] |  |  |
| 4.7 nM |  |  | N#C[C@H](Cc1ccc(-c2ccc3c(c2)CCC3=O)[se]1)NC(=O)[C@@H]1CNCCCO1 [Compound D121] |  |  |
|  | < 30% | < 30% | N#C[C@H](Cc1ccc(-c2ccc3oc(=O)n(C4CCN(C5COC5)CC4)c3c2)cc1F)NC(=O)[C@@H]1CNCCCO1 [Compound D82] |  |  |
|  | < 30% | < 30% | CN1CCC(n2c(=O)oc3ccc(-c4ccc(C[C@@H](C#N)NC(=O)[C@@H]5CNCCCO5)c(F)c4)cc32)CC1 [Compound D83] |  |  |
|  | < 30% | 30 to 75% | N#C[C@H](Cc1ccc(-c2cc3c(cn2)C(=O)CC3)cc1F)NC(=O)[C@@H]1CNCCCO1 [Compound D112] |  |  |
| 4.3 nM |  |  | C[C@@H]1CNC[C@@H](C(=O)N[C@H](C#N)Cc2ccc(-c3ccc4oc(=O)n(C)c4c3)cc2F)OC1 [Compound D110] |  |  |
|  | < 30% | 75 to 100% | CN1CCC2(C1)OCc1ccc(-c3ccc(C[C@@H](C#N)NC(=O)[C@@H]4CNCCCO4)c(F)c3)cc12 (stereo partly drawn) [Compound D86] |  |  |
| 6.1 nM |  |  | N#C[C@H](Cc1ccc(-c2ccc3c(c2)C2(COC2)OC3=O)cc1F)NC(=O)[C@@H]1CNCCCO1 [Compound D119] |  |  |
| 367 nM |  |  | CN1CC(Cn2c(=O)oc3ccc(-c4ccc(C[C@@H](C#N)NC(=O)[C@@H]5CNCCCO5)c(F)c4)cc32)C1 [Compound D96] |  |  |
| 17 nM |  |  | N#C[C@H](Cc1ccc(-c2ccc3c(c2)C2CC2C3=O)cc1F)NC(=O)[C@@H]1CNCCCO1 (stereo partly drawn) [Compound D122] |  |  |
|  | < 30% | 75 to 100% | COCC1OC(=O)c2ccc(-c3ccc(C[C@@H](C#N)NC(=O)[C@@H]4CNCCCO4)c(F)c3)cc21 (stereo partly drawn) [Compound D77] |  |  |
|  | < 30% | < 30% | N#C[C@H](Cc1ccc(-c2ccc3oc(=O)n(C4CC(O)C4)c3c2)cc1F)NC(=O)[C@@H]1CNCCCO1 (stereo partly drawn) [Compound D69] |  |  |
|  | < 30% | < 30% | Cn1c(=O)oc2ccc(-c3ccc(C[C@@H](C#N)NC(=O)[C@@H]4CNCC5(COC5)CO4)c(F)c3)cc21 [Compound D98] |  |  |
|  | < 30% | < 30% | N#C[C@H](Cc1ccc(-c2ccc3oc(=O)n(CC4COC4)c3c2)cc1F)NC(=O)[C@@H]1CNCCCO1 [Compound D94] |  |  |
|  | < 30% | 30 to 75% | N#C[C@H](Cc1ccc(-c2ccc3oc(=O)n(C4COC4)c3c2)cc1F)NC(=O)[C@@H]1CNCCCO1 [Compound D99] |  |  |
|  | < 30% | 30 to 75% | N#C[C@H](Cc1ccc(-c2ccc3c(c2)N2CC(=O)N=C2O3)cc1F)NC(=O)[C@@H]1CNCCCO1 [Compound D81] |  |  |

More lines, now with the values behind:

| Structure (SMILES) | IC50 | inhibition at 0.005 µM | inhibition at 0.05 µM | Average Inhibition % @5 nM (5 nM compound) | Average Inhibition % @50 nM (50 nM compound) |
| --- | --- | --- | --- | --- | --- |
| CN1CCN(S(=O)(=O)c2ccc(-c3ccc(C[C@@H](C#N)NC(=O)[C@@H]4CNCCCO4)cc3)cc2)CC1 [Compound D16] |  | < 30% | 30 to 75% |  |  |
| CN1CCC2(C=Cc3cc(-c4ccc(C[C@@H](C#N)NC(=O)[C@@H]5CNCCCO5)c(F)c4)ccc32)CC1 [Compound D91] | 18 nM | 30 to 75% | 75 to 100% |  |  |
| Cn1c(=O)oc2ccc(-c3ccc(C[C@@H](C#N)NC(=O)[C@@H]4CNCC5(CC5)CO4)nc3)cc21 [Compound D47] |  | < 30% | 75 to 100% |  |  |
| CNS(=O)(=O)c1ccc(-c2ccc(C[C@@H](C#N)NC(=O)[C@@H]3CNCCCO3)cc2)cc1 [Compound D23] |  | < 30% | < 30% |  |  |
| N#C[C@H](Cc1ccc(-c2cc3c(s2)CNC3=O)cc1)NC(=O)[C@@H]1CNCCCO1 [Compound D13] |  | < 30% | < 30% |  |  |
| CN1CC(n2c(=O)oc3ccc(-c4ccc(C[C@@H](C#N)NC(=O)[C@@H]5CNCCCO5)cc4)cc32)C1 [Compound D24] |  | 30 to 75% | 75 to 100% |  |  |
| Cn1c(=O)oc2ccc(-c3ccc(C[C@@H](C#N)NC(=O)[C@@H]4CNC[C@H](F)CO4)cc3)cc21 [Compound D54] |  | 30 to 75% | 30 to 75% |  |  |
| Cn1c(=O)oc2ccc(-c3ccc(C[C@@H](C#N)NC(=O)[C@@H]4CNCc5ccccc5O4)cc3)cc21 [Compound D49] |  | < 30% | 30 to 75% |  |  |
| Cn1c(=O)oc2ccc(-c3ccc(C[C@@H](C#N)NC(=O)[C@@H]4COCC[C@@H]4N)cc3)cc21 [Compound D52] |  | < 30% | 30 to 75% |  |  |
| CN1CCc2nc(-c3ccc(C[C@@H](C#N)NC(=O)[C@@H]4CNCCCO4)cc3)sc2C1 [Compound D18] |  | < 30% | 30 to 75% |  |  |
| CN1CCC2(CC1)OCc1ccc(-c3ccc(C[C@@H](C#N)NC(=O)[C@@H]4CNCCCO4)cc3)nc12 [Compound D31] |  | < 30% | 30 to 75% |  |  |
| Cn1cnc(-n2c(=O)oc3ccc(-c4ccc(C[C@@H](C#N)NC(=O)[C@@H]5CNCCCO5)c(F)c4)cc32)c1 [Compound D62] |  | < 30% | 30 to 75% |  |  |
| Cn1c(=O)oc2ccc(-c3ccc(C[C@@H](C#N)NC(=O)[C@@H]4CNCCCO4)s3)cc21 [Compound D53] | 16 nM |  |  |  |  |
| CN1CCC2(CC1)OCc1ccc(-c3ccc(C[C@@H](C#N)NC(=O)[C@@H]4CNCCCO4)cc3)cc12 [Compound D27] |  | < 30% | 30 to 75% |  |  |
| CN1CCC2(CC1)OC(=O)c1ccc(-c3ccc(C[C@@H](C#N)NC(=O)[C@@H]4CNCCCO4)cc3)cc12 [Compound D25] |  | 30 to 75% | 75 to 100% |  |  |
| Cn1cnc(-n2c(=O)oc3ccc(-c4ccc(C[C@@H](C#N)NC(=O)[C@@H]5CNCCCO5)c(F)c4)cc32)n1 [Compound D64] |  | < 30% | < 30% |  |  |

| Structure (SMILES) | IC50 | inhibition at 0.005 µM | inhibition at 0.05 µM | Average Inhibition % @5 nM (5 nM compound) | Average Inhibition % @50 nM (50 nM compound) |
| --- | --- | --- | --- | --- | --- |
| C[C@H](O)Cn1c(=O)oc2ccc(-c3ccc(C[C@@H](C#N)NC(=O)[C@@H]4CNCCCO4)cc3)cc21 [Compound D32] |  | < 30% | 30 to 75% |  |  |
| N#C[C@H](Cc1ccc(-c2ccc3nccn3c2)cc1)NC(=O)[C@@H]1CNCCCO1 [Compound D01] |  |  |  | − (“−”: inhibition % < 30%) | − (“−”: inhibition % < 30%) |
| CN1CCC2(C1)OC(=O)c1ccc(-c3ccc(C[C@@H](C#N)NC(=O)[C@@H]4CNCCCO4)cc3)cc12 (stereo partly drawn) [Compound D37] |  | < 30% | 30 to 75% |  |  |
| N#C[C@H](Cc1ccc(-c2ccc3c(c2)C=CC32CCN(C3COC3)CC2)cc1F)NC(=O)[C@@H]1CNCCCO1 [Compound D93] | 15.8 nM | 30 to 75% | 75 to 100% |  |  |
| N#C[C@H](Cc1ccc(-c2ccc3oc(=O)n(C4CC(=O)C4)c3c2)cc1F)NC(=O)[C@@H]1CNCCCO1 [Compound D68] |  | < 30% | < 30% |  |  |
| Cn1c(=O)oc2ccc(-c3ccc(C[C@@H](C#N)NC(=O)[C@@H]4CNCC(C)(C)CO4)cc3)cc21 [Compound D50] | > 1000 nM |  |  |  |  |
| Cn1c(=O)oc2cc(-c3ccc(C[C@@H](C#N)NC(=O)[C@@H]4CNCCCO4)cc3)ccc21 [Compound D17] |  | < 30% | 30 to 75% |  |  |
| CN1CCC2(CC1)OCc1cnc(-c3ccc(C[C@@H](C#N)NC(=O)[C@@H]4CNCCCO4)cc3)cc12 [Compound D39] |  | < 30% | 30 to 75% |  |  |
| N#C[C@H](Cc1ccc(-c2ccc3c(c2)C(=O)CC3)cc1)NC(=O)[C@@H]1CNCCCO1 [Compound D43] |  | < 30% | 30 to 75% |  |  |
| CN1CCC2(CC1)OCc1ccc(-c3ccc(C[C@@H](C#N)NC(=O)[C@@H]4CNCCCO4)c(F)c3)cc12 [Compound D105] |  | < 30% | < 30% |  |  |
| N#C[C@H](Cc1ccc(-c2ccc3c(c2)OC(F)(F)O3)cc1)NC(=O)[C@@H]1CNCCCO1 [Compound D07] |  | < 30% | 30 to 75% |  |  |
| CN1Cc2cc(-c3ccc(C[C@@H](C#N)NC(=O)[C@@H]4CNCCCO4)cc3)sc2C1=O [Compound D12] |  | < 30% | < 30% |  |  |
| Cn1c(=O)oc2ccc(-c3ccc(C[C@@H](C#N)NC(=O)[C@@H]4CNCCCO4)cc3)cc21 [AZD7986, Brensocatib, reference compound] |  | 30 to 75% | 75 to 100% |  |  |
| N#C[C@H](Cc1ccc(-c2ccc3c(c2)C2(CN(C4COC4)C2)OC3=O)cc1F)NC(=O)[C@@H]1CNCCCO1 [Compound D56] |  | < 30% | 30 to 75% |  |  |
| C[C@@H](O)Cn1c(=O)oc2ccc(-c3ccc(C[C@@H](C#N)NC(=O)[C@@H]4CNCCCO4)cc3)cc21 [Compound D34] |  | < 30% | 30 to 75% |  |  |
